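48-hour exposure; five concentrations; linearly interpolated endpoints. The concentration for 50% growth inhibition is given as GI50.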 Active and inactive are the calls of the source. No stated cut-off is given here; in the data, active = GI50 up to about 1.1 µM and inactive = higher.
Legend:
Assay in all cases: NCI anticancer screen, dose series, 48 h
A498 = test system: A498
A549 = test system: A549
CAKI-1 = test system: CAKI-1
COLO 205 = test system: COLO 205
DU-145 = test system: DU-145
HCC 2998 = test system: HCC 2998
HCT-116 = test system: HCT-116
HT-29 = test system: HT-29
MCF7 = test system: MCF7
MDA-MB-435 = test system: MDA-MB-435
NCI-H226 = test system: NCI-H226
NCI/ADR-RES = test system: NCI/ADR-RES
OVCAR-5 = test system: OVCAR-5
PC-3 = test system: PC-3
SF-295 = test system: SF-295
SNB-19 = test system: SNB-19
SNB-75 = test system: SNB-75
SR = test system: SR
UACC-62 = test system: UACC-62
CCRF-CEM = test system: CCRF-CEM

Measured: GI50

Nc1c2c(nc3ccccc13)CCCc1ccccc1-2
inactive: A498 8.43 µM | A549 16.3 µM | CAKI-1 15.9 µM | COLO 205 8.32 µM | DU-145 21.5 µM | HCC 2998 1.83 µM | HCT-116 4.78 µM | HT-29 4.53 µM | MCF7 13.1 µM | MDA-MB-435 11.3 µM | NCI-H226 15.9 µM | NCI/ADR-RES 20.3 µM | OVCAR-5 12.4 µM | PC-3 14.3 µM | SF-295 7.23 µM | SNB-19 11.3 µM | SNB-75 13.5 µM | SR 7.35 µM | UACC-62 6.7 µM

CC(=O)Nc1cc2cc(N)ccc2oc1=O
inactive: A498 > 100 µM | A549 > 100 µM | CAKI-1 > 100 µM | CCRF-CEM > 100 µM | COLO 205 > 100 µM | DU-145 > 100 µM | HCC 2998 > 100 µM | HCT-116 > 100 µM | HT-29 > 100 µM | MCF7 > 100 µM | MDA-MB-435 > 100 µM | NCI-H226 > 100 µM | NCI/ADR-RES > 100 µM | OVCAR-5 > 100 µM | PC-3 > 100 µM | SF-295 > 100 µM | SNB-19 > 100 µM | SR > 100 µM

CC1=NN(c2nc(N)nc(CC#N)n2)C(C)(C)C1
inactive: A498 > 100 µM | CAKI-1 > 100 µM | CCRF-CEM > 100 µM | COLO 205 > 100 µM | DU-145 > 100 µM | HCC 2998 > 100 µM | HCT-116 > 100 µM | HT-29 > 100 µM | MCF7 > 100 µM | MDA-MB-435 > 100 µM | NCI-H226 > 100 µM | NCI/ADR-RES > 100 µM | PC-3 > 100 µM | SF-295 > 100 µM | SNB-19 > 100 µM | SNB-75 > 100 µM | SR > 100 µM | UACC-62 > 100 µM

CCOP(=O)(OCC)/C(C#N)=C/c1ccnc2ccccc12
inactive: A498 78.3 µM | A549 > 100 µM | CAKI-1 24 µM | COLO 205 18.1 µM | DU-145 34.8 µM | HCC 2998 > 100 µM | HCT-116 3.27 µM | HT-29 19.7 µM | MCF7 18.8 µM | MDA-MB-435 16.4 µM | NCI-H226 24.8 µM | NCI/ADR-RES 20.5 µM | OVCAR-5 22.5 µM | PC-3 17.6 µM | SF-295 24.2 µM | SNB-19 21.4 µM | SNB-75 25.9 µM | SR 21.9 µM | UACC-62 26.1 µM

CN1CC[N+](C)=C1c1ccccc1
inactive: A498 > 100 µM | A549 > 100 µM | CAKI-1 > 100 µM | CCRF-CEM > 100 µM | COLO 205 > 100 µM | DU-145 > 100 µM | HCC 2998 > 100 µM | HCT-116 > 100 µM | HT-29 > 100 µM | MCF7 > 100 µM | MDA-MB-435 > 100 µM | NCI-H226 > 100 µM | NCI/ADR-RES > 100 µM | OVCAR-5 > 100 µM | PC-3 > 100 µM | SF-295 > 100 µM | SNB-19 > 100 µM | SNB-75 > 100 µM | SR > 100 µM

CSc1cc(Cl)c(C)cc1S(=O)(=O)NC(=O)NNc1ccc(F)cc1
inactive: A498 > 100 µM | A549 > 100 µM | CAKI-1 > 100 µM | COLO 205 > 100 µM | DU-145 > 100 µM | HCC 2998 30 µM | HCT-116 > 100 µM | HT-29 > 100 µM | MCF7 > 100 µM | MDA-MB-435 > 100 µM | NCI-H226 > 100 µM | NCI/ADR-RES > 100 µM | OVCAR-5 > 100 µM | PC-3 > 100 µM | SF-295 > 100 µM | SNB-19 > 100 µM | SNB-75 > 100 µM | SR > 100 µM

Reference: ChEMBL document CHEMBL1201862, “PubChem BioAssay data set” (2004)
